This assay concerns Plasmodium berghei. The assay is described as follows: Luciferase/luciferin-expressing antifolate-resistant parasites were used to infect a culture of HepG2 cells that were pre-incubated with compounds. Infected hepatocytes emit light due to the luciferase reaction. Assay results are presented as the percent inhibition of light emission compared to control. […]. As to conditions: sporozoite; for IC90: read-out: LUCIFERASE INFECTION ASSAY - IC90. It counts as functional.

Setting [1] is: read-out: LUCIFERASE INFECTION ASSAY - IC50.

SMILES strings stand for the structures. Bounds are passed on as bounds.

Experimental findings from ChEMBL document CHEMBL4483862, “Open-source discovery of chemical leads for next-generation chemoprotective antimalarials” (2018) are described below.

What is called IC50 is the midpoint of a concentration-inhibition curve. Broadly, the IC90 is the concentration at which the effect reaches the 90% level.

On to `Cc1ccc(-c2oc(NC(=O)c3cncc(Br)c3)c(C#N)c2-c2ccc(C)cc2)cc1`, for which the IC90 was 9.82 µM. Further, the IC50 (FFLUC_HILL_SLOPE 4.83, FFLUC_R_SQUARED 0.721, HEPG2TOX_HILL_SLOPE 9.42, HEPG2TOX_R_SQUARED 0.907, PBLUC_HILL_SLOPE 30.3, PBLUC_R_SQUARED 0.463, read-out: LUCIFERASE INFECTION ASSAY - IC50) was found to be 9.13 µM.
For the molecule `N#CC(=N)C(C#N)NCc1ccccc1Sc1ccc(Cl)cc1` (stereo unspecified), the IC90 was more than 9.68 µM. The IC50 under setting [1] is more than 9.68 µM.
As for `CCNC(=O)NC(=O)C(Sc1nncn1-c1ccccc1OC)c1ccccc1` (stereo unspecified), the IC90 came out at 9.43 µM. In addition, where the note is “HEPG2TOX_HILL_SLOPE 2.69, HEPG2TOX_R_SQUARED 0.767, PBLUC_HILL_SLOPE 3.33, PBLUC_R_SQUARED 0.658, read-out: LUCIFERASE INFECTION ASSAY - IC50”, the IC50 was determined as 4.87 µM.
With `O=C(NCc1cc(Cl)cc(Cl)c1)c1cc(C(F)(F)F)cc(C(F)(F)F)c1`, the IC90 was more than 7.93 µM. Under setting [1], the 50% inhibitory concentration (IC50) is more than 7.93 µM.
With `COc1ccc(OCc2cc(C(=O)NCc3ccccc3)c(C)o2)cc1`, the IC90 was more than 10 µM. For the same molecule, the IC50 (FFLUC_HILL_SLOPE 16.5, FFLUC_R_SQUARED 0.199, HEPG2TOX_HILL_SLOPE 9.38, HEPG2TOX_R_SQUARED 0.316, read-out: LUCIFERASE INFECTION ASSAY - IC50) was more than 10 µM.
In the case of `Cc1nc2c3c(C)c(C)n(Cc4ccccc4)c3ncn2n1`, the IC90 is more than 11.3 µM. Further, the IC50 (PBLUC_HILL_SLOPE 3.56, PBLUC_R_SQUARED 0.538, read-out: LUCIFERASE INFECTION ASSAY - IC50) was determined as 9.25 µM.
Regarding `Cc1noc(C)c1COc1cccc(C(=O)OCC(=O)N2CC(=O)Nc3ccccc32)c1`, the IC90 is more than 10 µM. In addition, for the setting “HEPG2TOX_HILL_SLOPE 1.25, HEPG2TOX_R_SQUARED 0.939, PBLUC_HILL_SLOPE 2.73, PBLUC_R_SQUARED 0.35, read-out: LUCIFERASE INFECTION ASSAY - IC50”, the IC50 was found to be 6.68 µM.
Turning to `CC(C)(C)c1cc(C(=O)OCC(=O)NC(c2ccccc2)c2ccccc2)cc(C(C)(C)C)c1`, the IC90 is more than 10 µM. In addition, the IC50 (FFLUC_HILL_SLOPE 15.9, FFLUC_R_SQUARED 0.274, HEPG2TOX_HILL_SLOPE 1.64, HEPG2TOX_R_SQUARED 0.592, PBLUC_HILL_SLOPE 2.07, PBLUC_R_SQUARED 0.325, read-out: LUCIFERASE INFECTION ASSAY - IC50) was determined as 7.82 µM.
In the case of `COC(=O)c1sc2[nH]c(COC(=O)c3ccccc3)nc(=O)c2c1C`, the IC90 was more than 10 µM. For the same molecule, the IC50 under setting [1] was more than 10 µM.
Take `COc1cc(C2CC(=O)c3cn[nH]c3C2)cc(OC)c1OC` (stereo unspecified): the IC90 is more than 10.9 µM. For the setting “HEPG2TOX_HILL_SLOPE 1.57, HEPG2TOX_R_SQUARED 0.775, PBLUC_HILL_SLOPE 1.9, PBLUC_R_SQUARED 0.199, read-out: LUCIFERASE INFECTION ASSAY - IC50”, the IC50 turned out to be 5.83 µM.
As to `CN(CCOc1ccccc1F)C(=O)c1cc(S(=O)(=O)N2CCCC2)c[nH]1`, the IC90 is more than 2 µM. Under setting [1], the IC50 is more than 2 µM.
Consider `CC(Sc1nc2ccccc2c(=O)n1CCN(C(C)C)C(C)C)C(N)=O` (stereo unspecified), for which the concentration for an effect of 90% (IC90) was more than 10 µM. The IC50 (PBLUC_HILL_SLOPE 1.51, PBLUC_R_SQUARED 0.457, read-out: LUCIFERASE INFECTION ASSAY - IC50) is 6.73 µM.
In the case of `Fc1ccc(-c2nc(CSc3nc(NC4CC4)c4ccccc4n3)cs2)cc1`, the IC90 came to 4.9 µM. Besides, the IC50 (PBLUC_HILL_SLOPE 8, PBLUC_R_SQUARED 0.651, read-out: LUCIFERASE INFECTION ASSAY - IC50) amounted to 3.72 µM.
For `CCS(=O)(=O)c1ncc(Cl)c(C(=O)Nc2ccccc2C(F)(F)F)n1`, the IC90 was determined as 4.41 µM. The IC50 (HEPG2TOX_HILL_SLOPE 4.53, HEPG2TOX_R_SQUARED 0.715, PBLUC_HILL_SLOPE 8.07, PBLUC_R_SQUARED 0.684, read-out: LUCIFERASE INFECTION ASSAY - IC50) was determined as 3.36 µM.
In the case of `COc1ccc(CNc2nc(C)nc3scc(-c4ccccc4)c23)cc1`, the IC90 came to 6.87 µM. Further, where the note is “FFLUC_HILL_SLOPE 0.195, FFLUC_R_SQUARED 0.119, HEPG2TOX_HILL_SLOPE 2.5, HEPG2TOX_R_SQUARED 0.976, PBLUC_HILL_SLOPE 4.55, PBLUC_R_SQUARED 0.142, read-out: LUCIFERASE INFECTION ASSAY - IC50”, the IC50 stood at 4.24 µM.
On to `CNc1ncnc(NNC(=O)Nc2ccc(Cl)cc2)c1[N+](=O)[O-]`, for which the IC90 was more than 9.77 µM. Further, the IC50 (PBLUC_HILL_SLOPE 3.27, PBLUC_R_SQUARED 0.316, read-out: LUCIFERASE INFECTION ASSAY - IC50) stood at 5.92 µM.
`CN1N=C2c3ccccc3CCC2C1c1ccc(F)cc1` (stereo unspecified): the IC90 worked out at 5.64 µM. Further, where the note is “PBLUC_HILL_SLOPE 1.42, PBLUC_R_SQUARED 0.884, read-out: LUCIFERASE INFECTION ASSAY - IC50”, the IC50 came out at 1.2 µM.
Turning to `Cc1cc(C)nc(N/N=C2/CCCC/C2=C\c2ccccc2)n1`, the IC90 is more than 10 µM. Also, under setting [1], the IC50 was more than 10 µM.
In the case of `O=C(Cc1ccc(-c2ccccc2)cc1)NCc1cn2ccccc2n1`, the IC90 is more than 10 µM. Also, the IC50 (PBLUC_HILL_SLOPE 15.5, PBLUC_R_SQUARED 0.301, read-out: LUCIFERASE INFECTION ASSAY - IC50) was 8.96 µM.
As to `CC(C)(C)c1ccc(C(=O)Nc2ccc(Oc3ccc(Cl)cc3)cc2)cc1`, the IC90 was more than 8.69 µM. For the same molecule, under setting [1], the IC50 was more than 8.69 µM.
In the case of `Cc1ccc(O)c(C(=O)c2cn/c(=N\c3ccccc3)n(-c3ccccc3)c2)c1`, the IC90 turned out to be 4.08 µM. Also, under “PBLUC_HILL_SLOPE 10.6, PBLUC_R_SQUARED 0.86, read-out: LUCIFERASE INFECTION ASSAY - IC50”, the 50% inhibitory concentration (IC50) was 3.32 µM.
For `COc1ccc(C(=O)C2CCN(C(=O)c3cnc(C)cn3)CC2)cc1`, the IC90 was more than 10 µM. The IC50 under setting [1] is more than 10 µM.
As for `COc1ccc(S(=O)(=O)N(C)CC2COc3ccccc3O2)cc1` (stereo unspecified), the IC90 was more than 10 µM. Further, the IC50 under setting [1] is more than 10 µM.
Turning to `O=C(CSc1nc2ccccc2c(=O)n1-c1ccccc1F)N1CCSC1c1ccccc1F` (stereo unspecified), the IC90 is more than 10 µM. In addition, under setting [1], the IC50 was more than 10 µM.
Take `CC1C/C(=C\c2ccco2)c2nc3ccccc3c(C(=O)OCC(=O)N3CC(=O)Nc4ccccc43)c2C1` (stereo unspecified): the IC90 is more than 10 µM. Further, under setting [1], the IC50 is more than 10 µM.
`O=C1C(=O)N(Cc2ccccc2Cl)c2c1cccc2C(F)(F)F`: the IC90 was determined as 3.7 µM. For the same molecule, the IC50 (FFLUC_HILL_SLOPE 12, FFLUC_R_SQUARED 0.566, HEPG2TOX_HILL_SLOPE 13.8, HEPG2TOX_R_SQUARED 0.966, PBLUC_HILL_SLOPE 12.2, PBLUC_R_SQUARED 0.654, read-out: LUCIFERASE INFECTION ASSAY - IC50) came to 3.09 µM.
For `Cc1nc(SCc2cccc(C(F)(F)F)c2)c2c(-c3cccs3)csc2n1`, the IC90 is more than 10 µM. Besides, the IC50 (FFLUC_HILL_SLOPE 83.3, FFLUC_R_SQUARED 0.372, read-out: LUCIFERASE INFECTION ASSAY - IC50) was more than 10 µM.
`Cc1[nH]c2ccc(C(=O)Nc3ccc(N4CCOCC4)nc3)cc2c1C`: the IC90 was more than 10 µM. Further, the IC50 (FFLUC_HILL_SLOPE 22.7, FFLUC_R_SQUARED 0.475, read-out: LUCIFERASE INFECTION ASSAY - IC50) was more than 10 µM.
For `CCNC(=O)NC(=O)CNC(c1ccc(CC)cc1)c1cccc(F)c1` (stereo unspecified), the IC90 was more than 10 µM. Further, where the note is “HEPG2TOX_HILL_SLOPE 2.54, HEPG2TOX_R_SQUARED 0.274, read-out: LUCIFERASE INFECTION ASSAY - IC50”, the IC50 was more than 10 µM.
For `N#CC(Cc1cccc([N+](=O)[O-])c1)(c1ccccc1)c1ccccc1`, the IC90 was more than 10 µM. Besides, the IC50 (HEPG2TOX_HILL_SLOPE 5.53, HEPG2TOX_R_SQUARED 0.223, PBLUC_HILL_SLOPE 1.93, PBLUC_R_SQUARED 0.0999, read-out: LUCIFERASE INFECTION ASSAY - IC50) was more than 10 µM.
For the molecule `CNc1nc2cnc(Nc3ccccc3)cc2n1-c1cccc(C(F)(F)F)c1`, the IC90 was more than 10 µM. Further, the IC50 under setting [1] is more than 10 µM.
In the case of `Cc1cc(/C=C(\C#N)C(=O)OCC(=O)c2c(N)n(CC(C)C)c(=O)n(C)c2=O)c(C)n1CC(C)C`, the IC90 is more than 10 µM. Moreover, the IC50 (PBLUC_HILL_SLOPE 2.67, PBLUC_R_SQUARED 0.243, read-out: LUCIFERASE INFECTION ASSAY - IC50) came out at 7.76 µM.
Consider `O=C(c1ccco1)N1CCN(c2nc(-c3ccsc3)nc3ccccc23)CC1`, for which the IC90 was more than 10 µM. Also, the IC50 (PBLUC_HILL_SLOPE 3.55, PBLUC_R_SQUARED 0.0384, read-out: LUCIFERASE INFECTION ASSAY - IC50) turned out to be 7.3 µM.
As to `COc1cc(-c2nc3ccc(NC(=O)c4cccnc4)cn3n2)cc(OC)c1OC`, the IC90 was more than 10 µM. Also, the IC50 (PBLUC_HILL_SLOPE 1.26, PBLUC_R_SQUARED 0.59, read-out: LUCIFERASE INFECTION ASSAY - IC50) was 6.96 µM.
For `O=C(Cc1csc(-c2ccccn2)n1)Nc1sc2c(c1C(=O)NCc1ccccc1)CCCC2`, the IC90 was more than 10 µM. The IC50 under setting [1] is more than 10 µM.
As to `OCc1ccc(-c2cnc3cnc(-c4cccs4)cn23)cc1`, the IC90 is 10.6 µM. The IC50 (PBLUC_HILL_SLOPE 16.2, PBLUC_R_SQUARED 0.35, read-out: LUCIFERASE INFECTION ASSAY - IC50) is 9.27 µM.
In the case of `CCCNc1ccc2ncc(-c3ccc(OC)c(OC)c3)n2n1`, the IC90 turned out to be 2.73 µM. Further, the IC50 (HEPG2TOX_HILL_SLOPE 2.36, HEPG2TOX_R_SQUARED 0.919, PBLUC_HILL_SLOPE 2.02, PBLUC_R_SQUARED 0.782, read-out: LUCIFERASE INFECTION ASSAY - IC50) is 0.918 µM.
As to `Cc1c(C(=O)NCCc2ccc3c(c2)OCCO3)cnn1-c1ccc(Cl)cc1`, the IC90 is more than 2 µM. Under setting [1], the 50% inhibitory concentration (IC50) is more than 2 µM.
